Assay results: patent publication US20200390100A1, “SUBSTITUTED N-HETEROCYCLYL- AND N-HETEROARYL-TETRAHYDROPYRIMIDINONES AND THE SALTS THEREOF, AND THE USE OF SAME AS HERBICIDAL ACTIVE SUBSTANCES” (Bayer Aktiengesellschaft, priority 2017, published 2020)

Tests used:
Assay type in all cases: in vivo
Echinochloa crus-galli = assay: Herbicidal pre-emergence action (Part 2), 1280 g/ha; conditions: application rate 1280 g/ha, scored visually after about 3 weeks, Table D1
Source text: (§1) Seeds of mono- and dicotyledonous weed plants were placed in plastic pots in sandy loam soil (doubly sown with in each case one species of mono- or dicotyledonous weed plants per pot) and covered with soil. The compounds of the invention, formulated in the form of wettable powders (WP) or as emulsion concentrates (EC), were then applied onto the surface of the covering soil as aqueous suspension or emulsion with addition of 0.5% additive at a water application rate of 600 liters per hectare (converted). After the treatment, the pots were placed in a greenhouse and kept under good growth conditions for the test plants. After about 3 weeks, the effect of the preparations was scored visually in comparison with untreated controls as percentages. For example, 100% activity=the plants have died, 0% activity=like control plants. Tables D1 to D8 below show the effects of selected compounds of the general formula (I) according to Tables 1.1 to 1.150 on various harmful plants and at an application rate corresponding to 1280 g/ha, which were obtained by the experimental procedure mentioned above.

Abutilon theophrasti [1] = assay: as above; conditions: application rate 1280 g/ha, scored visually after about 3 weeks, Table D5
Source text: as §1

Poa annua [2] = assay: as above; conditions: application rate 1280 g/ha, scored visually after about 3 weeks, Table D3
Source text: as §1

Stellaria media [3] = assay: as above; conditions: application rate 1280 g/ha, scored visually after about 3 weeks, Table D8
Source text: as §1

Setaria viridis = assay: as above; conditions: application rate 1280 g/ha, scored visually after about 3 weeks, Table D4
Source text: as §1

Matricaria inodora [4] = assay: as above; conditions: application rate 1280 g/ha, scored visually after about 3 weeks, Table D7
Source text: as §1

Amaranthus retroflexus [5] = assay: as above; conditions: application rate 1280 g/ha, scored visually after about 3 weeks, Table D6
Source text: as §1

Poa annua [6] = assay: Herbicidal post-emergence action (Part 2), 1280 g/ha; conditions: application rate 1280 g/ha, rated visually after about 3 weeks, Table C2
Experimental: (§2) Seeds of mono- and dicotyledonous weed plants were placed in plastic pots in sandy loam soil (doubly sown with in each case one species of mono- or dicotyledonous weed plants per pot), covered with soil and cultivated in a greenhouse under controlled growth conditions. 2 to 3 weeks after sowing, the test plants were treated at the one-leaf stage. The compounds of the invention, formulated in the form of wettable powders (WP) or as emulsion concentrates (EC), were applied onto the green parts of the plants as aqueous suspension or emulsion with addition of 0.5% additive at a water application rate of 600 liters per hectare (converted). After the test plants had been kept in the greenhouse under optimum growth conditions for about 3 weeks, the activity of the preparations was rated visually in comparison to untreated controls. For example, 100% activity=the plants have died, 0% activity=like control plants. Tables C1 to C7 below show the effects of selected compounds of the general formula (I) according to Tables 1.1 to 1.150 on various harmful plants and at an application rate corresponding to 1280 g/ha, which were obtained by the experimental procedure mentioned above.

Stellaria media [7] = assay: as above; conditions: application rate 1280 g/ha, rated visually after about 3 weeks, Table C7
Experimental: as §2

Matricaria inodora [8] = assay: as above; conditions: application rate 1280 g/ha, rated visually after about 3 weeks, Table C6
Experimental: as §2

Amaranthus retroflexus [9] = assay: as above; conditions: application rate 1280 g/ha, rated visually after about 3 weeks, Table C5
Experimental: as §2

Abutilon theophrasti [10] = assay: Pre-emergence herbicidal action, greenhouse, 320 g/ha; conditions: application rate 320 g/ha, scored visually after about 3 weeks vs untreated controls
Source text: (§3) Seeds of monocotyledonous and dicotyledonous weed plants and crop plants were placed in plastic or organic planting pots and covered with soil. The compounds of the invention, formulated in the form of wettable powders (WP) or as emulsion concentrates (EC), were then applied to the surface of the covering soil as aqueous suspension or emulsion with addition of 0.5% additive at a water application rate equivalent to […]. After the treatment, the pots were placed in a greenhouse and kept under good growth conditions for the test plants. After about 3 weeks, the effect of the preparations is scored visually in comparison with untreated controls as percentages. For example, 100% activity=the plants have died, 0% activity=like control plants. Tables B1 to B14 below show the effects of selected compounds of the general formula (I) according to Tables I.1 to I.150 on various harmful plants and at an application rate corresponding to 320 g/ha, which were obtained by the experimental procedure mentioned above.

Stellaria media [11] = assay: as above; conditions: application rate 320 g/ha, scored visually after about 3 weeks vs untreated controls
Source text: as §3

Digitaria sanguinalis = assay: as above; conditions: application rate 320 g/ha, Table B9
Source text: as §3

Polygonum convolvulus = assay: as above; conditions: application rate 320 g/ha, scored visually after about 3 weeks vs untreated controls
Source text: as §3

Viola tricolor = assay: as above; conditions: application rate 320 g/ha, Table B8
Source text: as §3

Pharbitis purpurea = assay: as above; conditions: application rate 320 g/ha, Table B12
Source text: as §3

Matricaria inodora [12] = assay: as above; conditions: application rate 320 g/ha, scored visually after about 3 weeks vs untreated controls
Source text: as §3

Veronica persica = assay: as above; conditions: application rate 320 g/ha, Table B13
Source text: as §3

Alopecurus myosuroides = assay: as above; conditions: application rate 320 g/ha, scored visually after about 3 weeks vs untreated controls
Source text: as §3

Row | Compound | Echinochloa crus-galli (Echinochloa crus-galli) | Abutilon theophrasti (Abutilon theophrasti [1]) | Poa Annua (Poa annua [2]) | Stellaria media (Stellaria media [3]) | Setaria viridis (Setaria viridis) | Matricaria inodora (Matricaria inodora [4]) | Amaranthus retroflexus (Amaranthus retroflexus [5]) | Poa Annua (Poa annua [6]) | Stellaria media (Stellaria media [7]) | Matricaria inodora (Matricaria inodora [8]) | Amaranthus retroflexus (Amaranthus retroflexus [9]) | Abutilon theophrasti (efficacy in %) (Abutilon theophrasti [10]) | Stellaria media (efficacy in %) (Stellaria media [11]) | Digitaria sanguinalis (efficacy in %) (Digitaria sanguinalis) | Polygonum convolvulus (efficacy in %) (Polygonum convolvulus) | Viola tricolor (efficacy in %) (Viola tricolor) | Pharbitis purpurea (efficacy in %) (Pharbitis purpurea) | Matricaria inodora (efficacy in %) (Matricaria inodora [12]) | Veronica persica (efficacy in %) (Veronica persica) | Alopecurus myosuroides (efficacy in %) (Alopecurus myosuroides)
1 | CC(=O)OC1CCN(C)C(=O)N1c1cc(C(C)(C)C)no1 (stereo not drawn) [I.2-290, 3-(3-tert-Butyl-1,2-oxazol-5-yl)-1-methyl-2-oxohexahydropyrimidin-4-yl Acetate] | 90% | 100% | 100% | 100% | 90% | 100% | 100% | 90% | 100% | 90% | 100% |  |  |  |  |  |  |  |  | 
2 | CC(=O)OC1CCN(C)C(=O)N1C1=NOC(C)(C)C1 (stereo not drawn) [I.2-709] |  |  |  |  |  |  |  |  |  |  |  | 80% | 100% | 90% | 100% | 100% | 100% | 100% | 100% | 90%
3 | CCCC(=O)OC1N(c2cc(C(C)(C)C)on2)C(=O)N(C)CC1(C)C (stereo not drawn) [I.66-162] | 90% | 100% | 100% |  |  | 100% | 90% | 90% |  |  | 100% |  |  |  |  |  |  |  |  | 
4 | CC(=O)OC1N(c2cc(C(C)(C)C)on2)C(=O)N(C)CC12CCC2 (stereo not drawn) [I.82-162] |  |  | 100% | 90% |  | 100% | 100% | 90% |  |  | 100% |  |  |  |  |  |  |  |  | 
